Measured values from PubChem BioAssay AID1850 (Southern Research Specialized Biocontainment Screening …, 2009).
Values joined by “and” are separate entries in the source; they are usually repeats but may differ in a detail not shown here. Equal entries are not always repeated.

tested on: Salmonella Typhi PhoP-promoter GFP reporter, fluorescence, 4 h; experiment: PhoP regulon inhibitors, Salmonella typhi PhoP promoter GFP reporter, confirmatory (AID 1850)

| SMILES | IC50 |
| --- | --- |
| Oc1ccc(C[C@@H]2CNCCN2CCC23CC4CC(CC(C4)C2)C3)cc1 | 71.5 µM |
| CCCCCCCCCC[N+](C)(C)CC/C=C1/c2ccccc2Sc2ccc(Cl)cc21 | 13.2 µM |
| CCCOc1ccc(C(=O)NNC(=S)NC(C)=O)cc1 | 35.5 µM |
| Nc1ncn(C2O[C@H](CO)[C@@H](O)[C@H]2O)c(=O)n1 (some centres undefined) | 34 µM |
| OC(CNCC1CCCO1)Cn1c2ccc(Cl)cc2c2cc(Cl)ccc21 (centres undefined) | 35.2 µM |
| OC(CNCc1ccco1)Cn1c2ccc(Br)cc2c2cc(Br)ccc21 (centres undefined) | 20.8 µM |
| C#CCOCCOCCOCCNc1nc(N2CCN(C(=O)CCCCCCCCCCNC(=O)[C@H](CCCCN)n3cc(C)nn3)CC2)nc(N2CCN(C(=O)CCCCCCCCCCNC(=O)[C@@H]([C@H](C)CC)n3cc(CCCCCN)nn3)CC2)n1 | 33 µM |
| O=C(C[n+]1cnn(CC(=O)c2ccc(Cl)cc2Cl)c1)c1ccc([N+](=O)[O-])cc1 | 37.4 µM |
| COc1cc(CNC2CCCC2)cc(Cl)c1OCc1ccccc1Cl | 71.2 µM |
| Fc1ccc(Nc2c3c(nc4ccccc24)CCC3)cc1 | 35.1 µM |
| CC[C@H]1OC(=O)[C@H](C)[C@@H](O[C@H]2C[C@@](C)(OC)[C@@H](O)[C@H](C)O2)[C@H](C)[C@@H](O[C@@H]2O[C@H](C)C[C@H](N(C)C)[C@H]2O)[C@](C)(OC)C[C@@H](C)C(=O)[C@H](C)[C@@H](O)[C@]1(C)O | 52 µM |
| c1ccc(CN2CCN(c3nc(NCc4ccco4)c4ccccc4n3)CC2)cc1 | 38 µM |
| Cc1ccc(N/C(=C\C(=O)c2ccccc2)C(=O)O)cc1 | 30.9 µM |
| CCc1ccc2c(c1)Sc1ccccc1CC2N1CCN(C)CC1 (centres undefined) | 40.7 µM |
| CCn1cc(C(=O)O)c(=O)c2cc(F)c(N3CCN(C(=S)Nc4ccc(OC)cc4)CC3)cc21 | 5.79 µM |
| Cc1ccc(C(C[N+](=O)[O-])Sc2ccc(N)cc2)cc1 (centres undefined) | 55.1 µM |
| C#CCOCCOCCOCCNc1nc(N2CCN(C(=O)CCCCCCCCCCNC(=O)Cn3cc(CCCCCN)nn3)CC2)nc(N2CCN(C(=O)CCCCCCCCCCNC(=O)[C@H]([C@@H](C)CC)n3cc(CCCCN=C(N)N)nn3)CC2)n1 | 28.3 µM |
| COC12C(COC(N)=O)C3=C(C(=O)C(C)=C(N)C3=O)N1CC1C2N1C (centres undefined) | 8.18 µM |
| COc1ccc(OCc2n(CC(=O)OC3CC(C)CCC3C(C)C)c3ccccc3[n+]2C)cc1 (centres undefined) | 48.9 µM |
| CCOC(=O)N/N=C(/C)c1ccc([N+](=O)[O-])o1 | 53.7 µM |
| O=C(Nc1c(Cl)ccc2nsnc12)c1ccc([N+](=O)[O-])o1 | 91.4 µM |
| CN1CCN(CC(=O)N2CCn3c4c(c5cc(C6CCCCC6)ccc53)CCCC42)CC1 (centres undefined) | 32 µM |
| Cc1nc(N)nc(N)c1CCCc1ccc(Cl)c(Cl)c1 | 35.9 µM |
| O=[N+]([O-])c1cccc(NNS(=O)(=O)c2ccccc2F)c1 | 6.05 µM |
| CC(=O)NC(c1ccc2ccccc2c1)c1ccc2cccnc2c1O (centres undefined) | 106 µM |
| CCCCCCCCCCC[N+](C)(C)CC/C=C1/c2ccccc2Sc2ccc(Cl)cc21 | 39 µM |
| COC(=O)C1=C(C)N(Cc2ccccc2)C(=NCc2cccc(C(F)(F)F)c2)N[C@H]1c1cccc(F)c1 | 33.3 µM |

| SMILES | IC50 |
| --- | --- |
| CCOc1ccc(Nc2nc(N)c3ccccc3n2)cc1 | 19.7 µM |
| C#CCOCCOCCOCCNc1nc(N2CCN(C(=O)CCCCCCCCCCNC(=O)[C@H]([C@@H](C)CC)n3cc(CCCCN=C(N)N)nn3)CC2)nc(N2CCN(C(=O)CCCCCCCCCCNC(=O)[C@H](CO)n3cc(CCCCCN)nn3)CC2)n1 | 34.7 µM |
| COc1ccccc1Nc1c2ccccc2nc2ccccc12 | 36.3 µM |
| N=c1c2c(n(Cc3ccc(Cl)c(Cl)c3)c3c1CCC3)CCCC2 | 37.4 µM |
| N#C/C(=C\c1ccc[nH]1)C(=O)NC1CC1 | 73.8 µM |
| Cc1nonc1C(=O)N/N=C/c1ccc(O)cc1O | 33.4 µM |
| CCN1CCN(CCNC(=O)c2ccc3c(c2)N(Cc2ccc(F)cc2)C(=O)/C(=C/c2ccccc2)S3)CC1 | 44.8 µM |
| Fc1ccccc1CSc1ccc(-c2ccco2)nn1 | 133 µM |
| CCCCCCCCCCOC(=O)Cn1c(COc2ccccc2OC)[n+](C)c2ccccc21 | 10.2 µM |
| COc1c(N2CCN[C@H](C)C2)c(F)cc2c(=O)c(C(=O)O)cn(C3CC3)c12 | < 0.23 µM |
| Cc1cc(C)c2c(N)c3ccccc3nc2n1 | 77.3 µM |
| O=C(O)c1cn(C2CC2)c2cc(N3CCN(S(=O)(=O)c4ccc5c(c4)OCCO5)CC3)c(F)cc2c1=O | 7.56 µM |
| CS(=O)(=O)c1ccc([C@@H](O)[C@@H](CF)NC(=O)C(Cl)Cl)cc1 | 5.21 µM |
| CN(C)CCCN(C(=O)c1ccc2c(c1)CCCC2)c1nc2ccc(Cl)cc2s1 | 83.7 µM |
| Clc1ccc(OCCCNCc2ccccc2)c(Br)c1 | 37.6 µM |
| Cc1ccc(C(C[N+](=O)[O-])n2nc(C)cc2C)cc1 (centres undefined) | 75.1 µM |
| Cc1cc(OCCCCCN2CCCC2)ccc1Cl | 122 µM |
| O=C(CSC1=NC(=O)C(c2ccccc2)C(=O)N1)Nc1cccc(Cl)c1 (centres undefined) | 43.8 µM |
| CN1CCN(CCCN2c3ccccc3Sc3ccc(Cl)cc32)CC1 | 56 µM and 34.7 µM |
| O=c1cc(-c2ccccc2)cc(-c2ccccc2)n1O | 19.2 µM |
| CC(C)(c1ccccc1)c1ccc(OCCCNCCO)cc1 | 72 µM |
| O=C(Cc1ccccc1)N/N=C/c1cc(Br)cc(Cl)c1O | 32.7 µM |
| C#CCOCCOCCOCCNc1nc(N2CCN(C(=O)[C@H](Cc3cc4ccccc4[nH]3)n3cc([C@@H](N)C(C)CC)nn3)CC2)nc(N2CCN(C(=O)[C@H](Cc3cc4ccccc4[nH]3)n3cc([C@@H](N)CC(C)C)nn3)CC2)n1 (some centres undefined) | 70 µM |
| N=c1c2c(n(Cc3ccc(Cl)cc3Cl)c3c1CCC3)CCCC2 | 42.3 µM |
| C/C(=N\NC(=O)c1ccc(Cl)cc1)c1ccccn1 | 33.4 µM |
| C=CCn1c(NS(=O)(=O)c2ccccc2)c(S(=O)(=O)c2ccc(C)cc2)c2nc3ccccc3nc21 | 50.4 µM |
| Oc1cccc2ccc(Nc3ccccn3)nc12 | 9.36 µM |
